Laboratory results published in US9782522B2, “Compositions and methods for treating and preventing neointimal stenosis” (Yale University, priority 2011, dated 2017).

Assays:
3T3 human fibroblasts = experiment: Bioactivity of encapsulated SB-431542 (phosphorylated SMAD-2 after TGF-β1); type: cell-based
Protocol: SB-431542 was released into 1 ml PBS from 10 mg avidin-coated PLGA microparticles and one untrimmed SB-431542-eluting PGA-P(CL/LA) scaffold in 2 ml microcentrifuge tubes at 37° C. At 48 hours, samples were centrifuged at 13200 RPM for 10 minutes, supernatants were collected and analyzed by spectrophotometry at 320 nm. SB-431542 concentrations were adjusted to 10 μM by dilution with PBS. 3T3 human fibroblasts were plated at 500,000/well and stimulated at confluence with 700 ul 10 μM SB-431542 in PBS eluted from particles or scaffolds, a stock solution of 10 or 1 μM SB-431542 containing <1% DMSO, or PBS. After 30 minutes at 37° C., cells were washed and stimulated with 200 ul 2 ng/ml recombinant human TGF-β1 (BD Biosciences) for 1 hour at 37 C. Cells were lysed and protein samples were separated by gel electrophoresis with a 12% polyacrylamide gel and probed with primary antibody to phosphorylated SMAD-2 (ser426/ser428, Cell Signaling Technology) and secondary goat anti-rabbit IgG (Cell Signaling Technology). The gel was stripped and reprobed with anti-SMAD2/3 as a loading control.

HUAEC = experiment: qRT-PCR mRNA expression of TGFβ signaling and Endo-MT markers in endothelial cells; type: cell-based, human; details: FRS2 knockdown EC; 10 μM
Excerpt: Human 293T T17 cells (ATCC CRL-11268) were maintained in Dulbecco's modified Eagle's medium (Gibco) with 10% fetal bovine serum (Invitrogen) and penicillinstreptomycin (Gibco). Primary human mammary epithelial cells (HuMEC, Invitrogen), were maintained in HuMEC basal serum free medium with HuMEC supplement (Invitrogen 12754-016) and bovine pituitary extract (Invitrogen 13028-014). Human foreskin cells (ATCC CRL-1079Sk) were maintained in Minimum Essential Medium (ATCC) with 10% fetal bovine serum (Hyclone), β-mercaptoethanol (Sigma), and penicillin-streptomycin (Gibco). Primary human atrial cells (passage 3-5; gift from Y. Qyang, Yale University School of Medicine) were maintained in Dulbecco's modified Eagle's medium (Gibco) with 10% fetal bovine serum (Invitrogen), L-glutamine (Gibco), Sodium pyruvate (Gibco), Non-essential amino acid (Gibco), and penicillin-streptomycin (Gibco). HUAEC (human umbilical artery endothelial cells, passage 5-10, Lonza) were cultured in EBM-2 supplemented with EGM-2-MV bullet kit (Lonza). HUVEC (human umbilical vein endothelial cells, passage 3-7, Yale Vascular Biology and Therapeutics) were cultured in M199 with ECGS, supplemented with 20% FBS (Sigma), L-glutamine (Gibco), and penicillin-streptomycin (Gibco). Culture vessels were coated with 0.1% gelatin (Sigma) for 30 min at 37° C. immediately prior to cell seeding. Primary mouse endothelial cells were isolated from the heart using rat anti-mouse CD31 antibody and Dynabeads (Invitrogen) as previously described (Partovian C, et al. Mol Cell. 32(1):140 (2008)).
RNA was isolated using RNeasy® plus Mini Kit (Qiagen) and converted to cDNA using iScript™ cDNA synthesis kit (Bio-Rad). Quantitative real-time PCR (qRT-PCR) was performed using Bio-Rad […] (Bio-Rad) by mixing equal amount of eDNAs, iQ™ SYBR® Green Supermix (Bio-Rad) and gene specific primers. All reactions were done in a 25 μl reaction volume in duplicate. Data were normalized to endogenous β-actin. Values are expressed as fold change in comparison to control. Mouse TGFβ gene expression was quantified via qRT-PCR with TaqMan® Gene Expression Assays (Mm00441726_m1; Applied Biosystems) and HPRT (Mm00441258_1; Applied Biosystems) as endogenous control followed the manufacturer's recommendation. Quantitative PCR analysis of 84 TGFβ and epithelial to mesenchymal transition (EMT) related genes were performed using Human TGFβ BMP signaling pathway (PAHS-035D, QIAGEN) and Human Epithelial to Mesenchymal Transition (PAHS-090D, QIAGEN) RT^2 Profiler™ PCR Arrays following the manufacturer's protocol. RT^2 Profiler™ PCR arrays were run on a Bio-Rad CFX96 machine (Bio-Rad). Duplicate arrays were run per condition for control and FRS2 knockdown human umbilical arterial endothelial cells (HUAEC). Data analysis was performed using the manufacturer's integrated web-based software package for the PCR Array System using cycle threshold (Ct)-based fold-change calculations.
Recombinant human FGF2 (R&D) and TGFβ1 (Peprotech) were reconstituted in 0.1% BSA/PBS. U0126 (Sigma), a MEK inhibitor, was reconstituted in DMSO and used at a final concentration of 10 μM. SB431542 (Sigma), a TGFBR1 kinase inhibitor, was reconstituted in DMSO and used at a final concentration of 10 μM in cell culture. Actinomycin D (Sigma), a DNA transcription suppressor, was reconstituted in acetone and used at a final concentration of 10 μg/ml in cell culture. […]

NC(=O)c1ccc(-c2nc(-c3ccc4c(c3)OCO4)c(-c3ccccn3)[nH]2)cc1 [SB431542, 4-[4-(1,3-Benzodioxol-5-yl)-5-(2-pyridinyl)-1H-imidazol-2-yl]-benzamide]
Biologic activity of the released drug (3T3 human fibroblasts; inhibitor added to the solvent used to make the grafts): continued biologic activity
Biologic activity of the released drug (3T3 human fibroblasts; microparticle system): maintains its biologic activity
SM-calponin expression (HUAEC): significantly decreased
fibronectin expression (HUAEC): significantly decreased
vimentin expression (HUAEC): significantly decreased
